Key:
Format in all cases: binding
dCRY; dCRY(WT)-SORTC-SL [1] = target: T1, dCRY; dCRY(WT)-SORTC-SL (Drosophila melanogaster, UniProt O77059, H378R/L405E/C416N); test: cw-ESR, UV-vis and 4P-DEER of bound flavin after blue light; conditions: pH 8; neutral semiquinone formed in light
T1 construct: gene cry; full length, N-terminal twin-Strep tag, C-terminal sort-tag (LPGTG) ligated to GGGGC-nitroxide (LPGTGGGGC); E. coli CmpX13

dCRY; dCRY(WT)-SORTC-SL [2] = target: T2, dCRY; dCRY(WT)-SORTC-SL (Drosophila melanogaster, UniProt O77059, H378N/L405E/C416N); test: as above; conditions: pH 8; neutral semiquinone formed in light
T2 construct: gene cry; full length, N-terminal twin-Strep tag, C-terminal sort-tag (LPGTG) ligated to GGGGC-nitroxide (LPGTGGGGC); E. coli CmpX13
T2 sequence (O77059 1-539 H378N/L405E/C416N): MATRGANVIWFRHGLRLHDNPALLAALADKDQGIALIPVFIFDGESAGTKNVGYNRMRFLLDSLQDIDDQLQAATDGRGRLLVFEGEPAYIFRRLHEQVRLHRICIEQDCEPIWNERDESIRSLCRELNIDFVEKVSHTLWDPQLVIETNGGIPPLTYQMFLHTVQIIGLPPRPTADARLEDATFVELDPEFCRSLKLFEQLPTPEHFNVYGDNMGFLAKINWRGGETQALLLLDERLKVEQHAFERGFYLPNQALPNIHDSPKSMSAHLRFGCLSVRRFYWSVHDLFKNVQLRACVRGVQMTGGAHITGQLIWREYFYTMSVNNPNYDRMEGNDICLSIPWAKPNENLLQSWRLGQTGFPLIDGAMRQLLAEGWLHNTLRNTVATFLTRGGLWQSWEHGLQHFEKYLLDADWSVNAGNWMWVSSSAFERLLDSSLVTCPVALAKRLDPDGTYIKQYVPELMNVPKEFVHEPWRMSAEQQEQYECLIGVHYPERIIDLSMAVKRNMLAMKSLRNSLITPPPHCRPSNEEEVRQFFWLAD

dCRY; dCRY(WT)-SORTC-SL [3] = target: T3, dCRY; dCRY(WT)-SORTC-SL (Drosophila melanogaster, UniProt O77059, H378R); test: as above; conditions: pH 8; anionic semiquinone formed in light
T3 construct: gene cry; full length, N-terminal twin-Strep tag, C-terminal sort-tag (LPGTG) ligated to GGGGC-nitroxide (LPGTGGGGC); E. coli CmpX13
T3 sequence (O77059 1-539 H378R): as the sequence (O77059 1-539 H378N/L405E/C416N) above, with N378R, E405L, N416C counted along it

dCRY; dCRY(WT)-SORTC-SL [4] = target: T4, dCRY; dCRY(WT)-SORTC-SL (Drosophila melanogaster, UniProt O77059, H378K/L405E/C416N); test: as above; conditions: pH 8; neutral semiquinone formed in light
T4 construct: gene cry; full length, N-terminal twin-Strep tag, C-terminal sort-tag (LPGTG) ligated to GGGGC-nitroxide (LPGTGGGGC); E. coli CmpX13
T4 sequence (O77059 1-539 H378K/L405E/C416N): as the sequence (O77059 1-539 H378N/L405E/C416N) above, with N378K counted along it

dCRY; dCRY(WT)-SORTC-SL [5] = target: T5, dCRY; dCRY(WT)-SORTC-SL (Drosophila melanogaster, UniProt O77059); test: X-ray crystal structure, […] A; also UV-vis and ENDOR; conditions: dark state; crystals at pH 9; magnesium
T5 construct: gene cry; full length, N-terminal twin-Strep tag, C-terminal sort-tag (LPGTG) ligated to GGGGC-nitroxide (LPGTGGGGC); E. coli CmpX13
T5 sequence (O77059 1-539): as the sequence (O77059 1-539 H378N/L405E/C416N) above, with N378H, E405L, N416C counted along it

dCRY; dCRY(WT)-SORTC-SL [6] = target: T6, dCRY; dCRY(WT)-SORTC-SL (Drosophila melanogaster, UniProt O77059, H378N); test: cw-ESR, UV-vis and 4P-DEER of bound flavin after blue light; conditions: pH 8; anionic semiquinone formed in light
T6 construct: gene cry; full length, N-terminal twin-Strep tag, C-terminal sort-tag (LPGTG) ligated to GGGGC-nitroxide (LPGTGGGGC); E. coli CmpX13
T6 sequence (O77059 1-539 H378N): as the sequence (O77059 1-539 H378N/L405E/C416N) above, with E405L, N416C counted along it

dCRY; dCRY(WT)-SORTC-SL [7] = target: T7, dCRY; dCRY(WT)-SORTC-SL (Drosophila melanogaster, UniProt O77059, H378K); test: as above; conditions: pH 8; anionic semiquinone formed in light
T7 construct: gene cry; full length, N-terminal twin-Strep tag, C-terminal sort-tag (LPGTG) ligated to GGGGC-nitroxide (LPGTGGGGC); E. coli CmpX13
T7 sequence (O77059 1-539 H378K): as the sequence (O77059 1-539 H378N/L405E/C416N) above, with N378K, E405L, N416C counted along it

dCRY; dCRY(WT)-SORTC-SL [8] = target: T8, dCRY; dCRY(WT)-SORTC-SL (Drosophila melanogaster, UniProt O77059, L405E/C416N); test: UV-vis, ENDOR and cw-ESR of bound flavin, blue-light photoreduction; conditions: pH 8; neutral semiquinone formed in light
T8 construct: gene cry; full length, N-terminal twin-Strep tag, C-terminal sort-tag (LPGTG) ligated to GGGGC-nitroxide (LPGTGGGGC); E. coli CmpX13
T8 sequence (O77059 1-539 L405E/C416N): as the sequence (O77059 1-539 H378N/L405E/C416N) above, with N378H counted along it

T1 sequence (O77059 1-539 H378R/L405E/C416N): as the sequence (O77059 1-539 H378N/L405E/C416N) above, with N378R counted along it

Cc1cc2nc3c(=O)[nH]c(=O)nc-3n(C[C@H](O)[C@H](O)[C@H](O)COP(=O)(O)OP(=O)(O)OC[C@H]3O[C@@H](n4cnc5c(N)ncnc54)[C@H](O)[C@@H]3O)c2cc1C [FAD]
cw-ESR, UV-vis and 4P-DEER of bound flavin after blue light (dCRY; dCRY(WT)-SORTC-SL [1]): triple substitutions (H378K/N/R, L405E, and C416N) led to NSQ formation | cw-ESR, UV-vis and 4P-DEER of bound flavin after blue light (dCRY; dCRY(WT)-SORTC-SL [2]): triple substitutions (H378K/N/R, L405E, and C416N) led to NSQ formation | cw-ESR, UV-vis and 4P-DEER of bound flavin after blue light (dCRY; dCRY(WT)-SORTC-SL [3]): H378 substitutions (H378K/N/R) led to ASQ formation | cw-ESR, UV-vis and 4P-DEER of bound flavin after blue light (dCRY; dCRY(WT)-SORTC-SL [4]): triple substitutions (H378K/N/R, L405E, and C416N) led to NSQ formation | X-ray crystal structure, 2.58 A; also UV-vis and ENDOR (dCRY; dCRY(WT)-SORTC-SL [5]): The crystal structure of dCRY-WT-SORTC-SL in the dark state shows that the active site FAD | cw-ESR, UV-vis and 4P-DEER of bound flavin after blue light (dCRY; dCRY(WT)-SORTC-SL [6]): H378 substitutions (H378K/N/R) led to ASQ formation | cw-ESR, UV-vis and 4P-DEER of bound flavin after blue light (dCRY; dCRY(WT)-SORTC-SL [7]): H378 substitutions (H378K/N/R) led to ASQ formation | UV-vis, ENDOR and cw-ESR of bound flavin, blue-light photoreduction (dCRY; dCRY(WT)-SORTC-SL [8]): Both WT dCRY and L405E/C416N show characteristic absorption bands of oxidized FAD in the dark

Source: paper PMC7910608, “Tuning flavin environment to detect and control light-induced conformational switching in Drosophila cryptochrome” (Communications Biology, 2021)
